Like-named read-outs stand apart in the source and are kept apart here.
Assays:
TGEV = assay: Antiviral effect against TGEV in WSL or ST cells, plaque assay on ST; assay type: cell-based, swine coronavirus TGEV; settings: LG in WSL cells, VPA in ST cells
Description: Figure S2. […] The inhibitory effect […]
of LG or VPA was assayed on triplicate cultures of TGEV-infected WSL (wild swine macrophage cell line) or ST (swine testis) cells, respectively. After 1 h-pre-incubation with AVs, triplicate cultures were infected with the corresponding virus, at a MOI of 2 PFU/cell, in a reduced volume of medium containing the AV, for 2h, virus inoculum removed and cells washed twice with medium, before the addition of drug-containing fresh medium (supplemented with 2% FBS). Cultures were then incubated for 24 h at 37 °C; total virus (intracellular and extracellular) production was evaluated by plaque assay on triplicate cultures of ST cells. Left y-axis represents infectious virus progeny at 24 hpi and right y-axis, cell viability determined by MTT assay of each corresponding cell line. IC50 values and SI values […]
[TGEV titers (PFU/ml): 1.1±0.1 x 108 in the absence of the drugs, […]
(1 picture or pasted object on this page, not shown here)

in vitro [1] = settings: human
HCoV-229E-GFP [2] = assay: microbe, parasite or virus in culture; assay type: cell-based; settings: for IC50: Human coronavirus 229E
SARS-CoV-2 = assay: Direct virucidal effect on virus particles; settings: 10^5 PFU, 1 h at room temperature; LG 0 to 300 μM, VPA 0 to 300 mM
HCoV-229E-GFP [3] = assay type: cell-based; settings: at 16 μM LG; no drug 3.5 ± 0.6 × 10^6
[4] = long-term toxicity studies in rats and mice; cited from earlier work
[5] = test system: SARS-CoV-2 isolate MAD6 (Wuhan-Hu-1 strain); assay: Time of addition assay; assay type: cell-based; settings: for IC50: 24 hpi, read-out: IC50, SARS-CoV-2 production
HCoV-OC43 [6] = assay type: cell-based; settings: at 32 μM LG; no drug 3.2 ± 0.2 × 10^6
HCoV-OC43 [7] = assay: Direct virucidal effect on virus particles; settings: 10^5 PFU, 1 h at room temperature; LG 0 to 300 μM, VPA 0 to 300 mM
[8] = test system: SARS-CoV-2 isolate MAD6 (Wuhan-Hu-1 strain); assay: Virus yield inhibition in infected Calu3 2B4 cells, plaque assay on Vero E6; assay type: cell-based
SARS-CoV-2 (MAD6) = assay: Drug combination (synergy) study, virus yield in Calu3 2B4, CompuSyn; assay type: cell-based
HCoV-OC43 [9] = assay: Time of addition assay; assay type: cell-based; settings: for IC50: 48 hpi
HCoV-229E-GFP [10] = assay: Time of addition assay; assay type: cell-based; settings: for IC50: Human coronavirus 229E, 24 hpi
[11] = test system: SARS-CoV-2 isolate 39896362_AG (omicron strain); assay: microbe, parasite or virus in culture; assay type: cell-based; settings: […], Fig. 1
[12] = test system: HCoV-229E, HCoV-OC43, and SARS-CoV-2; assay: Antiviral assays, summary over all tested HCoVs; assay type: cell-based, human coronaviruses
in vitro [13] = settings: human, CC50 (MTT assay), Huh-7
HCoV-229E-GFP [14] = assay: Direct virucidal effect on virus particles; settings: 10^5 PFU, 1 h at room temperature; LG 0 to 300 μM, VPA 0 to 300 mM
in vitro [15] = settings: human, CC50 (MTT assay), HCT-8
FMDV = settings: mouse, cited from earlier work
HCoV-OC43 [16] = assay: microbe, parasite or virus in culture; assay type: cell-based
in vitro [17] = settings: African green monkey

Q: Which “inhibition of TGEV multiplication” value (TGEV) does the source give for `CCCCCCCCCCCCOC(=O)c1cc(O)c(O)c(O)c1` [LG, lauryl gallate] here?
A: Its value is “inhibited the multiplication”.

Q: And the CC50 (in vitro [1])?
A: Its CC50 is 124 µM.

Q: What about the “selectivity index (SI=CC50/IC50)” value (HCoV-229E-GFP [2]) of the same compound?
A: Its value is 79.14.

Q: And the IC50 (HCoV-229E-GFP [2]; Huh-7, read-out: IC50, virus yield, Huh-7, AV from 1 h before adsorption, 24 hpi, Fig. 1)?
A: Its IC50 is 1.05 ± 0.3 µM.

Q: And the IC50 (HCoV-229E-GFP [2]; Huh-7, read-out: IC50, virus yield, specificity experiment (Fig. 3), Huh-7, 24 hpi)?
A: Its IC50 is 1.72 µM.

Q: What about the HCoV-229E-GFP titers (HCoV-229E-GFP [2]; at 100 μM, Fig. 3, no drug 4 ± 0.9 × 10^6) of the same compound?
A: Its HCoV-229E-GFP titers is 5 ± 0.2 × 10^2 PFU/mL.

Q: And the HCoV-229E-GFP titers (HCoV-229E-GFP [2]; at LG 40 μM, 24 hpi, no drug 3 ± 0.5 × 10^6, Fig. 1)?
A: The HCoV-229E-GFP titers was 1.4 ± 0.2 × 10^2 PFU/mL.

Q: What about the “direct virucidal effect (change in virus titers)” value (SARS-CoV-2) of the same compound?
A: Its value is “No decrease in virus titers”.

Q: What about the HCoV-229E-GFP titers (HCoV-229E-GFP [3]) of the same compound?
A: Its HCoV-229E-GFP titers is 5 ± 0.2 × 10^2 PFU/mL.

Q: What about the “highest dose at which no effects were observed” value [4] of the same compound?
A: Its value is 1,000 mg kg-1 of feed.

Q: And the IC50 ([5]; Severe acute respiratory syndrome coronavirus 2, AV added 0 hpi)?
A: Its IC50 is 2.9 µM.

Q: What about the IC50 ([5]; Severe acute respiratory syndrome coronavirus 2, AV added 2 hpi) of the same compound?
A: Its IC50 is 3.09 µM.

Q: What about the IC50 ([5]; Severe acute respiratory syndrome coronavirus 2, AV added −2 hpi (1 h before adsorption)) of the same compound?
A: Its IC50 is 2.72 µM.

Q: And the SARS-CoV-2 average titers ([5]; at 100 μM LG, average of addition times, no drug 3.4 ± 0.2 × 10^5)?
A: The SARS-CoV-2 average titers was 5 ± 0.01 × 10^1 PFU/mL.

Q: What about the HCoV-OC43 titers (HCoV-OC43 [6]) of the same compound?
A: Its HCoV-OC43 titers is 2.2 ± 0.2 × 10^3 PFU/mL.

Q: And the “direct virucidal effect (change in virus titers)” value (HCoV-OC43 [7])?
A: Its value is “No decrease in virus titers”.

Q: And the IC50 ([8]; Severe acute respiratory syndrome coronavirus 2, Calu-3 2B4, read-out: IC50, virus yield, Calu3 2B4, Wuhan-Hu-1 strain, AV from 1 h before adsorption, 24 hpi, Fig. 1)?
A: Its IC50 is 2.26 ± 0.5 µM.

Q: What about the SARS-CoV-2 titers ([8]; at 100 μM, Fig. 3, no drug 3.±0.1 × 10^5) of the same compound?
A: Its SARS-CoV-2 titers is 1 ± 0.1 × 10^2 PFU/mL.

Q: What about the “SARS-CoV-2 isolate MAD6 titers” value ([8]; at LG 100 μM, 24 hpi, no drug 3.4 ± 1 × 10^5, Fig. 1) of the same compound?
A: The value was 5 ± 0.01 × 10^1 PFU/mL.

Q: And the SARS-CoV-2 titers (SARS-CoV-2 (MAD6); at 16 μM LG, no drug 3.2 ± 0.2 × 10^5)?
A: The SARS-CoV-2 titers was 6 ± 0.2 × 10^3 PFU/mL.

Q: And the “average DRI” value (SARS-CoV-2 (MAD6); for the named drug over its combinations, at Fa = 0.5 to 0.95)?
A: Its value is 4.25.

Q: And the IC50 (HCoV-OC43 [9]; Betacoronavirus 1, OC43, read-out: IC50, HCoV-OC43 production, AV added 0 hpi)?
A: The IC50 was 1.92 µM.

Q: And the IC50 (HCoV-OC43 [9]; Betacoronavirus 1, OC43, read-out: IC50, HCoV-OC43 production, AV added 2 hpi)?
A: Its IC50 is 2.97 µM.

Q: What about the IC50 (HCoV-OC43 [9]; Betacoronavirus 1, OC43, read-out: IC50, HCoV-OC43 production, AV added −3 hpi (1 h before adsorption)) of the same compound?
A: Its IC50 is 1.79 µM.

Q: And the HCoV-OC43 average titers (HCoV-OC43 [9]; at 40 μM LG, average of addition times, no drug 3.5 ± 0.5 × 10^6)?
A: The HCoV-OC43 average titers was 5 ± 0.01 × 10^1 PFU/mL.

Q: And the IC50 (HCoV-229E-GFP [10]; read-out: IC50, HCoV-229E-GFP production, AV added 0 hpi)?
A: The IC50 was 1.48 µM.

Q: And the IC50 (HCoV-229E-GFP [10]; read-out: IC50, HCoV-229E-GFP production, AV added 2 hpi)?
A: Its IC50 is 2.05 µM.

Q: And the IC50 (HCoV-229E-GFP [10]; read-out: IC50, HCoV-229E-GFP production, AV added −3 hpi (1 h before adsorption))?
A: Its IC50 is 1.24 µM.

Q: What about the HCoV-229E-GFP average titers (HCoV-229E-GFP [10]; at 40 μM LG, average of addition times, no drug 4 ± 0.6 × 10^6) of the same compound?
A: Its HCoV-229E-GFP average titers is 6 ± 2 × 10^2 PFU/mL.

Q: And the IC50 ([11]; Severe acute respiratory syndrome coronavirus 2, Vero C1008, Vero E6, omicron strain, AV from 1 h before adsorption, read-out: IC50, virus yield)?
A: Its IC50 is 1.36 ± 0.2 µM.

Q: And the “SARS-CoV-2 isolate 39896362_AG titers” value ([11]; at LG 64 μM, no drug 1 ± 0.1 × 10^5)?
A: The value was 5 ± 0.01 × 10^1 PFU/mL.

Q: What about the “SI values for all tested HCoVs” value [12] of the same compound?
A: The value was “above 30”.

Q: What about the IC50 ([12]; average over all tested HCoVs, read-out: average IC50 value) of the same compound?
A: Its IC50 is 1.6 µM.

Q: And the IC50 ([12]; range over tested HCoVs, read-out: IC50 values, range over HCoVs)?
A: The IC50 was 1 to 2 µM.

Q: What about the CC50 (in vitro [13]; 24 h cell incubation with AV) of the same compound?
A: Its CC50 is 83.1 µM.

Q: And the CC50 (in vitro [13]; 48 h cell incubation with AV)?
A: Its CC50 is 55 µM.

Q: What about the “direct virucidal effect (change in virus titers)” value (HCoV-229E-GFP [14]) of the same compound?
A: Its value is “No decrease in virus titers”.

Q: And the CC50 (in vitro [15]; 24 h cell incubation with AV)?
A: The CC50 was 55 µM.

Q: And the CC50 (in vitro [15]; 48 h cell incubation with AV)?
A: Its CC50 is 50.4 µM.

Q: What about the “toxicity to the animals” value (FMDV; in vivo) of the same compound?
A: Its value is “not found to be toxic”.

Q: What about the “in vivo antiviral effect against FMDV” value (FMDV) of the same compound?
A: The value was “reducing FMDV-induced mortality and viral load in mice”.

Q: And the “selectivity index (SI=CC50/IC50)” value (HCoV-OC43 [16])?
A: The value was 33.74.

Q: What about the IC50 (HCoV-OC43 [16]; Betacoronavirus 1, OC43, Huh-7, read-out: IC50, virus yield, Huh-7, AV from 1 h before adsorption, 48 hpi, Fig. 1) of the same compound?
A: The IC50 was 1.63 ± 0.6 µM.

Q: What about the IC50 (HCoV-OC43 [16]; Betacoronavirus 1, OC43, Huh-7, read-out: IC50, virus yield, specificity experiment (Fig. 3), Huh-7, 48 hpi) of the same compound?
A: The IC50 was 1.14 µM.

Q: And the HCoV-OC43 titers (HCoV-OC43 [16]; at 100 μM, Fig. 3, no drug 1.8 ± 0.9 × 10^6)?
A: The HCoV-OC43 titers was 5 ± 0.01 × 10^1 PFU/mL.

Q: What about the HCoV-OC43 titers (HCoV-OC43 [16]; at LG 40 μM, 48 hpi, no drug 3.1 ± 0.9 × 10^6, Fig. 1) of the same compound?
A: Its HCoV-OC43 titers is 5 ± 0.01 × 10^1 PFU/mL.

Q: And the CC50 (in vitro [17])?
A: Its CC50 is 90.9 µM.

Source: PMC10112268, “Inhibition of Human Coronaviruses by Combinations of Host-Targeted and Direct-Acting Antivirals” (Antimicrobial Agents and Chemotherapy, 2023)
